Results from paper PMC10878532, “Sperm Toolbox—A selection of small molecules to study human spermatozoa” (PLOS ONE, 2024).

What was measured:
[1] = tested on: Testis-Specific Serine/Threonine Kinase 2 (TSSK2); set-up: method as in PMID 28952188; details: described as; cited from earlier work
human spermatozoa [2] = experiment: Motility assay (non-capacitating conditions); assay type: cell-based
Description: (§1) To compare the effects of STB compounds on specific sperm functions (e.g. motility, acrosome reaction, viability), we screened them in multiple phenotypic functional assays described below. Each sperm function assay has been repeated in multiple donor pools (see Materials and methods), where each pool consists of cells donated from at least 3 different donors to address donor to donor variability. Each compound has been tested at two concentrations, 10 and 30 μM, and normalized to vehicle controls (DMSO, see Materials and methods). We have modified our assays from the previously published workflow by increasing incubation time and introducing conditions that support capacitation, which is a sperm maturation process required for fertilization. These changes expand the range of targets that we can explore in our assays. Our live-sperm-based high-throughput motility assays use an automated microscope to record short timelapse movies. These assays can be run in different protocols (S1 Fig). […] In this protocol, cells are incubated with compounds for 10 min prior to the first motility read-out. A second and third motility read-out were performed after 3h and 6h incubation. The second protocol, denoted ‘capacitation assay’, utilises conditions that support capacitation (S1 Fig). In this protocol, cells are kept in conditions supporting capacitation for 30 minutes prior to 30 minutes incubation with compound, followed by motility read-out. Both protocols allow sperm motility to be measured (0.5 sec time-lapse movies allow tracking of cells and calculation of sperm kinematics). In addition, the capacitation assay also scores hyperactivation (i.e. distinct movement patterns concomitant with capacitation which are crucial for fertilization) (Fig 2A).
Cells were rested for 1 h post density gradient centrifugation. 10 μL assay buffer was dispensed into assay ready plates, plates were put onto a shaker instrument for 30 seconds using 1,000 rpm, followed by a short pulse centrifugation. Plates were incubated for 15–30 mins at 37°C prior to addition of 10 μL of pooled cells (at 1 M/mL concentration). Plates were then incubated in a Yokogawa CV7000 microscope set at 37°C for 10 min prior to imaging. Imaging a 384-well plate requires ≤ 20 min using the following settings: 2 positions per well, 0.5 sec timelapse movies (3x binning; 11 ms exposure time, 22 ms interval time, […]). A second and a third timepoint was recorded after 3 h, and 6 h incubation at 37°C. Data has been processed as described in [8]. Assay results are from 5 separate donor pools.
(§2) For cell painting imaging data, plates of images were imported into OMERO [70]. Cell segmentation and feature extraction were performed using CellProfiler 3 [71] and using instructions from to normalize data. Timelapse data of motility assays was processed as previously described. Acrosome flow cytometry data was processed using NovoCyte Express (PerkinElmer), to gate out background debris, select for single cells and calculate percentage values of acrosome positive events. Sperm viability flow cytometry data was processed using iQue Forecyt (Satorius) to gate out background debris, select for single cells and calculate percentage values of propidium iodide positive events. For all sperm functional assays, data was normalized to DMSO control wells. Each plate had 16 DMSO wells. A median value of all 16 wells was used to calculated percentage change (pct_ch = ((value / DMSO_median) -1) * 100). For sperm viability we calculated fold-change (fc = 1 − (value / DMSO_median)). For each compound we calculated a p-value using a Welch’s t-test implemented in scipy (scipy.stats.ttest_ind) comparing a compounds effect to DMSO controls.

spermatozoa = tested on: spermatozoa; set-up: method as in per compound as listed in column References of Table 1; details: summaries of reported effects; ref per compound as listed in Table 1; cited from earlier work
human spermatozoa [3] = experiment: Sperm viability assay (propidium iodide, flow cytometry); assay type: cell-based; details: 3h with compound
Description: In this assay, cells are incubated for 3h with compound in non-capacitating media, prior to viability assessment.
Cells were incubated with compounds for a total of 3h at 37°C. 20 min prior, propidium iodide was added (1.5 mM solution, Sigma, final dilution 1:2000). Plates were analysed using a Satorius iQue Screener with settings to allow for a sampling time of ≤30 min per 384-well plate. Gating of data has been performed using the flow cytometer software to export counts of gated populations. This assay was tested in 5 separate donor pools.
as §2

human spermatozoa [4] = experiment: Acrosome assay, protocol 1 (3h incubation with compound, no agonist; flow cytometry, PNA); assay type: cell-based; details: 3h with compound, no agonist addition
Description: The acrosome assays utilize a high-throughput flow cytometer (S1 Fig) to score for compounds inducing the acrosome reaction, using peanut agglutinin conjugated to a fluorescent dye to label the outer acrosomal membrane. We have developed two different screening protocols, named ‘acrosome 1’ and ‘acrosome 2’ (S1 Fig). […] This addition allowed measurement of inhibition of acrosome reaction (Fig 2B).
(§3) In both experimental protocols, 20 μL of pooled cells (at 1 M/mL concentration) were capacitated for 3 h in presence of compounds at 37°C and 5% CO2. In protocol a, cells were then stained with PNA-Alexa647 (ThermoFisher, 1 mg/mL, final dilution 1:1000) and Hoechst dye for 30 min at 37°C and 5% CO2, followed by 10 min fixation at RT by adding 20 μL of 4% paraformaldehyde (Sigma) in PBS. In mode b, a cocktail of progesterone, prostaglandin A and NH4Cl was added to all compound wells and incubated for an additional 1 h at 37°C and 5% CO2 to induce acrosome reaction. This was followed by fixation and staining protocol as for mode a. In both protocols fixatives and stains were removed and cells were resuspended in PBS, using a 405 platewasher. Plates were then measured on a Novocyte Advanteon high-throughput flow cytometer. Gating of data has been performed using the flow cytometer software to export counts of gated populations. The Acrosome 1 protocol using 3h incubation with compounds was run in 7 separate donor pools. The Acrosome 2 protocol using 3h incubation with compound followed by 1h stimulation of acrosome reaction was run in 5 separate donor pools.
as §2

HeLa = HeLa cell painting cytotoxicity assay; assay type: cell-based; details: 24h compound incubation
Description: The HeLa-based assay uses the cell painting assay [11], while the HepG2 assay utilizes a resazurin based viability read-out [64].
Cell were incubated with compounds for 24h.
• 10 μL of MitoTracker (Life Technologies, M22426, 1 mM stock in DMSO as recommended by the vendor) is added to 50 μL of media (1:2000 final dilution) • Phalloidin-Alexa594 (Life Technologies, A12381, 66 μM stock in methanol as recommended by the vendor, 1:500 final dilution) • WGA-Alexa594 (Life Technologies, W11262, 5 mg/mL stock, 1:250 final dilution) was used • DAPI (5 mg/mL stock; 1:1000 final dilution) was used to stain DNA • 20 μL of staining solution was used • PBS was used for washing steps
For cell painting imaging data, plates of images were imported into OMERO [70]. Cell segmentation and feature extraction were performed using CellProfiler 3 [71] and using instructions from [11] to normalize data.

HepG2 = HepG2 cytotoxicity assay (resazurin based); assay type: cell-based; details: 70h incubation
human spermatozoa [5] = experiment: Capacitation assay (motility and hyperactivation under capacitating conditions); assay type: cell-based; details: cluster in Fig 3A; 30 min capacitation then 30 min with compound
Description: as §1
Cells were capacitated for 30 min at 37°C and 5% CO2. 10 μL assay buffer was dispensed into assay ready plates, plates were put onto a shaker instrument for 30 seconds using 1,000 rpm, followed by a short pulse centrifugation. Plates were incubated for 15–30 mins at 37°C and 5% CO2 prior to addition of 10 μL of pooled cells (at 1 M/mL concentration). This was followed by a 20 min compound incubation step at 37°C and 5% CO2. Plates were then incubated in our CV7000 microscope set at 37°C and 5% CO2 for 10 min prior to imaging. […]
For cell painting imaging data, plates of images were imported into OMERO [70]. […] A median value of all 16 wells was used to calculated percentage change (pct_ch = ((value / DMSO_median) -1) * 100). For sperm viability we calculated fold-change (fc = 1 − (value / DMSO_median)). For each compound we calculated a p-value using a Welch’s t-test implemented in scipy (scipy.stats.ttest_ind) comparing a compounds effect to DMSO controls.

LRRK2 kinase = details: described as; cited from earlier work
human spermatozoa [6] = experiment: Acrosome assay, protocol 2 (3h with compound, then 1h agonist cocktail); assay type: cell-based; details: cluster in Fig 3A; 3h with compound then agonist mix
Description: The acrosome assays utilize a high-throughput flow cytometer (S1 Fig) to score for compounds inducing the acrosome reaction, using peanut agglutinin conjugated to a fluorescent dye to label the outer acrosomal membrane. We have developed two different screening protocols, named ‘acrosome 1’ and ‘acrosome 2’ (S1 Fig). Both protocols are capable of measuring induction of the acrosome reaction upon compound incubation. However, in the acrosome 2 assay, a mixture of physiological agonists of the acrosome reaction is used after cells have been incubated with compounds for 3h under conditions that support capacitation. This addition allowed measurement of inhibition of acrosome reaction (Fig 2B).
as §3
as §2, with “Sperm viability flow cytometry data was processed using iQue Forecyt (Satorius) to gate out background debris, select for single cells and calculate percentage values of propidium iodide positive events. For all sperm functional assays, data was normalized to DMSO control wells. Each plate had 16 DMSO wells.” left out

CNS(=O)(=O)c1ccccc1Nc1nc(Nc2ccc(C3CCN(C)CC3)cc2OC)ncc1Cl [Compound 19]
TSSK2 inhibition [1]: potent | sperm motility (human spermatozoa [2]): decrease sperm motility | Published Phenotype (spermatozoa): Blocks TSSK; similarity to brigatinib

COc1cc(C(=O)N2CCC(N3CCN(C)CC3)CC2)ccc1Nc1ncc2c(n1)N(C)c1ccccc1C(=O)N2C [LRRK2-IN-1]
effects on sperm viability (human spermatozoa [3]): do not show effects | acrosome reacted cells without agonist cocktail (human spermatozoa [4]): no change | progressive motility (human spermatozoa [2]; non-capacitating conditions, Fig 2): enhances motility | general cytotoxicity (HeLa) (HeLa): do not show effects | general cytotoxicity (HepG2) (HepG2): do not show effects | hyperactive motility (human spermatozoa [5]): significantly increased | LRRK2 kinase inhibition (LRRK2 kinase): selective inhibitor | acrosome reaction (acrosome reacted cells) (human spermatozoa [6]): significantly increased
